Blank lines part the entries; values can stand above or below the substance they belong to.
System: IgE antibody present in the serum of a patient (latex-allergic)
Assay: Latex epitope mapping (2) overlapping 10-residue peptides and (3) alanine/glycine scanning on peptide arrays
Format: binding, human
Method: On the basis of the sequences (SEQ ID NOs: 5, 25, 35, 68 and 83) of the peptides bound to an IgE antibody in serum in a patient-specific manner as described above in (A), a library of overlapping peptide fragments (length: 10 amino acids) was prepared using the sequences of the peptides and sequences in which sequences were added so as to flank each peptide in the amino acid sequences of allergy components comprising the sequences of the peptide. Epitope mapping was carried out using the library.
The peptides to be synthesized were shifted by one amino acid.
The library was prepared by the same procedure as described above in (A), and the presence or absence of binding of an IgE antibody present in the serum of a patient to each peptide fragment was measured by the same technique as described above. Numeric values determined from images obtained as a result of carrying out only the procedures (1) and (4) to (6) described above in the subsection titled (3) Spotting of cellulose-bound peptide solution were used as control values. The control value of each peptide was subtracted from numeric values determined from images obtained from results about the serum of patients, and the obtained value of the difference was compared with values of the peptides serving as the basis of overlapping.
Chemiluminescence intensity in images obtained by measurement was converted into a numeric value in the same manner as in (A). Numeric values determined from images obtained as a result of carrying out only the procedures (1) and (4) to (6) described above in the subsection titled (3) Spotting of cellulose-bound peptide solution (secondary antibody measurement values) were used as control values. The control value of each peptide was subtracted from numeric values determined from images obtained from results about the serum of patients. When values obtained using the sequences (SEQ ID NOs: 5, 25, 35, 68 and 83) serving as the basis of overlapping were defined as 100%, it was determined that: a peptide having a value of the difference that was less than 30% had no binding activity against IgE antibodies; a peptide having a value of the difference that was 30% or more and less than 50% had binding activity, albeit poor, against IgE antibodies; a peptide having a value of the difference that was 50% or more and less than 70% had binding activity, albeit somewhat poor, against IgE antibodies; and a peptide having a value of the difference that was 70% or more had equivalent or good binding activity against IgE antibodies and was thus a peptide had remaining binding activity against IgE antibodies.
From the amino acid sequences identified above in (A), a library of peptide fragments in which amino-terminal amino acids were substituted one by one by alanine (or glycine when the original amino acid was alanine) according to a technique called alanine/glycine scanning (Non Patent Literature 5) was prepared by the same technique as described above. The presence or absence of binding of an IgE antibody present in the serum of a patient to each peptide fragment was measured by the same technique as described above.
Chemiluminescence intensity in images obtained by measurement was converted into a numeric value in the same manner as in (A). Numeric values determined from images obtained from secondary antibody measurement values were used as control values. The control value of each peptide was subtracted from numeric values determined from images obtained from results about the serum of 17 patients (patient Nos. P1-P17). […]

[1] = serum of latex-allergic patient P1
[2] = serum of latex-allergic patient P2
[3] = serum of latex-allergic patient P6
[4] = serum of latex-allergic patient P7
[5] = serum of latex-allergic patient P8
[6] = serum of latex-allergic patient P9
[7] = serum of latex-allergic patient P12
[8] = serum of latex-allergic patient P13
[9] = serum of latex-allergic patient P17
[10] = serum of latex-allergic patient P15
[11] = serum of latex-allergic patient P3
[12] = serum of latex-allergic patient P4
[13] = serum of latex-allergic patient P5

Substance: 12 (QKPYD; epitope) [compound 12]
- epitope sequence grade for binding to IgE antibody [4]: Preferably

Substance: 14 (QKPYDK; epitope) [compound 14]
- epitope sequence grade for binding to IgE antibody [5]: Preferably

Substance: 15 (QKPYD; epitope) [compound 15]
- epitope sequence grade for binding to IgE antibody [5]: Key

Substance: 17 (EDNFVIQKPY; epitope) [compound 17]
- epitope sequence grade for binding to IgE antibody [7]: More preferably

Substance: 18 (QKPYDK; epitope) [compound 18]
- epitope sequence grade for binding to IgE antibody [7]: Preferably

Substance: 21 (FVIQKPYD; epitope) [compound 21]
- epitope sequence grade for binding to IgE antibody [9]: Further preferably

Substance: 26 (DKPLN; epitope) [compound 26]
- epitope sequence grade for binding to IgE antibody [2]: Key

Substance: 27 (KPYDKP; epitope) [compound 27]
- epitope sequence grade for binding to IgE antibody [3]: Key

Substance: 28 (KPLNDRYS; epitope) [compound 28]
- epitope sequence grade for binding to IgE antibody [3]: Key

Substance: 33 (KPYDKPLNDR; epitope) [compound 33]
- epitope sequence grade for binding to IgE antibody [9]: Preferably

Substance: 34 (DKPLNDRYS; epitope) [compound 34]
- epitope sequence grade for binding to IgE antibody [9]: Key

Substance: 37 (SYKSNSVATD; epitope) [compound 37]
- epitope sequence grade for binding to IgE antibody [11]: Further preferably

Substance: 38 (SYKSNSVA; epitope) [compound 38]
- epitope sequence grade for binding to IgE antibody [11]: More preferably

Substance: 41 (SYKSNSV; epitope) [compound 41]
- epitope sequence grade for binding to IgE antibody [12]: More preferably

Substance: 44 (SYKSNS; epitope) [compound 44]
- epitope sequence grade for binding to IgE antibody [13]: Preferably

Substance: 46 (LKSYKSNSVA; epitope) [compound 46]
- epitope sequence grade for binding to IgE antibody [5]: Preferably

Substance: 49 (KSNSVATD; epitope) [compound 49]
- epitope sequence grade for binding to IgE antibody [5]: More preferably

Substance: 52 (LKSYK; epitope) [compound 52]
- epitope sequence grade for binding to IgE antibody [6]: Key

Substance: 53 (KSNSVATDIY; epitope) [compound 53]
- epitope sequence grade for binding to IgE antibody [6]: Further preferably

Substance: 58 (SYKSNSVATD; epitope) [compound 58]
- epitope sequence grade for binding to IgE antibody [7]: Still further preferably

Substance: 63 (VATDIY; epitope) [compound 63]
- epitope sequence grade for binding to IgE antibody [7]: More preferably

Substance: 71 (VNVIHKVGKG; epitope) [compound 71]
- epitope sequence grade for binding to IgE antibody [13]: More preferably

Substance: 78 (KVGK; epitope) [compound 78]
- epitope sequence grade for binding to IgE antibody [4]: Key

Substance: 79 (KVGK; epitope) [compound 79]
- epitope sequence grade for binding to IgE antibody [6]: Key

Substance: 80 (KVGKGEITVF; epitope) [compound 80]
- epitope sequence grade for binding to IgE antibody [9]: More preferably

Substance: 85 (SKFYDDKN; epitope) [compound 85]
- epitope sequence grade for binding to IgE antibody [1]: Preferably

Substance: 88 (DDKNGYSSS; epitope) [compound 88]
- epitope sequence grade for binding to IgE antibody [1]: More preferably

Substance: 91 (WSKFYDDK; epitope) [compound 91]
- epitope sequence grade for binding to IgE antibody [2]: Further preferably

Substance: 101 (DKNGYSSS; epitope) [compound 101]
- epitope sequence grade for binding to IgE antibody [12]: More preferably

Substance: 104 (WSKFYDDK; epitope) [compound 104]
- epitope sequence grade for binding to IgE antibody [13]: More preferably

Substance: 107 (YDDKNGYSSS; epitope) [compound 107]
- epitope sequence grade for binding to IgE antibody [13]: Preferably

Substance: 114 (KFYDDK; epitope) [compound 114]
- epitope sequence grade for binding to IgE antibody [7]: Key

Substance: 115 (WSKFYDDKN; epitope) [compound 115]
- epitope sequence grade for binding to IgE antibody [9]: More preferably

Further lines, results first:

- epitope sequence grade for binding to IgE antibody [1]: Key
Substance: 6 (QKPY; epitope) [compound 6]

- epitope sequence grade for binding to IgE antibody [2]: Preferably
Substance: 7 (DNFVIQKPYD; epitope) [compound 7]

- epitope sequence grade for binding to IgE antibody [3]: More preferably
Substance: 9 (EDNFVIQKPY; epitope) [compound 9]

- epitope sequence grade for binding to IgE antibody [3]: Preferably
Substance: 10 (QKPYDK; epitope) [compound 10]

- epitope sequence grade for binding to IgE antibody [3]: Key
Substance: 11 (QKPY; epitope) [compound 11]

- epitope sequence grade for binding to IgE antibody [4]: Key
Substance: 13 (QKPY; epitope) [compound 13]

- epitope sequence grade for binding to IgE antibody [6]: Key
Substance: 16 (QKPYDK; epitope) [compound 16]

- epitope sequence grade for binding to IgE antibody [7]: Key
Substance: 19 (QKPY; epitope) [compound 19]

- epitope sequence grade for binding to IgE antibody [8]: Key
Substance: 20 (QKPYDK; epitope) [compound 20]

- epitope sequence grade for binding to IgE antibody [9]: More preferably
Substance: 22 (QKPYDKPLN; epitope) [compound 22]

- epitope sequence grade for binding to IgE antibody [9]: Preferably
Substance: 23 (QKPYD; epitope) [compound 23]

- epitope sequence grade for binding to IgE antibody [9]: Key
Substance: 24 (QKPY; epitope) [compound 24]

- epitope sequence grade for binding to IgE antibody [6]: Key
Substance: 29 (DKPLNDR; epitope) [compound 29]

- epitope sequence grade for binding to IgE antibody [8]: Key
Substance: 30 (KPLN; epitope) [compound 30]

- epitope sequence grade for binding to IgE antibody [10]: Preferably
Substance: 31 (DKPLND; epitope) [compound 31]

- epitope sequence grade for binding to IgE antibody [10]: Key
Substance: 32 (KPLN; epitope) [compound 32]

- epitope sequence grade for binding to IgE antibody [11]: Most preferably
Substance: 36 (LKSYKSNSVA; epitope) [compound 36]

- epitope sequence grade for binding to IgE antibody [11]: Preferably
Substance: 39 (SYKSNSV; epitope) [compound 39]

- epitope sequence grade for binding to IgE antibody [5]: Key
Substance: 47 (LKSYKSNSV; epitope) [compound 47]

- epitope sequence grade for binding to IgE antibody [5]: Further preferably
Substance: 48 (KSNSVATDI; epitope) [compound 48]

- epitope sequence grade for binding to IgE antibody [7]: Most preferably
Substance: 57 (LKSYKSNSVA; epitope) [compound 57]

- epitope sequence grade for binding to IgE antibody [7]: Further preferably
Substance: 59 (SYKSNSVA; epitope) [compound 59]

- epitope sequence grade for binding to IgE antibody [8]: Key
Substance: 66 (SYKSNS; epitope) [compound 66]

- epitope sequence grade for binding to IgE antibody [9]: Key
Substance: 67 (KSNSV; epitope) [compound 67]

- epitope sequence grade for binding to IgE antibody [1]: Preferably
Substance: 69 (HKVGKGEI; epitope) [compound 69]

- epitope sequence grade for binding to IgE antibody [1]: Key
Substance: 70 (HKVGKG; epitope) [compound 70]

- epitope sequence grade for binding to IgE antibody [13]: Further preferably
Substance: 74 (VIHKVGKGEI; epitope) [compound 74]

- epitope sequence grade for binding to IgE antibody [13]: More preferably
Substance: 75 (HKVGKGEI; epitope) [compound 75]

- epitope sequence grade for binding to IgE antibody [1]: More preferably
Substance: 84 (SKFYDDKNG; epitope) [compound 84]

- epitope sequence grade for binding to IgE antibody [1]: Further preferably
Substance: 87 (YDDKNGYSSS; epitope) [compound 87]

- epitope sequence grade for binding to IgE antibody [2]: More preferably
Substance: 92 (KFYDDKNGYS; epitope) [compound 92]

- epitope sequence grade for binding to IgE antibody [2]: Preferably
Substance: 93 (KFYDDK; epitope) [compound 93]

- epitope sequence grade for binding to IgE antibody [2]: More preferably
Substance: 95 (DDKNGYSSS; epitope) [compound 95]

- epitope sequence grade for binding to IgE antibody [12]: More preferably
Substance: 98 (WSKFYDDK; epitope) [compound 98]

- epitope sequence grade for binding to IgE antibody [12]: Preferably
Substance: 99 (KFYDDKNGYS; epiotope) [compound 99]

- epitope sequence grade for binding to IgE antibody [12]: Key
Substance: 100 (KFYDDK; epitope) [compound 100]

- epitope sequence grade for binding to IgE antibody [13]: Preferably
Substance: 105 (SKFYDDK; epitope) [compound 105]

- epitope sequence grade for binding to IgE antibody [13]: Key
Substance: 106 (KFYDDK; epitope) [compound 106]

- epitope sequence grade for binding to IgE antibody [4]: Key
Substance: 109 (WSKFYDDK; epitope) [compound 109]

- epitope sequence grade for binding to IgE antibody [4]: Preferably
Substance: 110 (YDDKNGYSSS; epitope) [compound 110]

- epitope sequence grade for binding to IgE antibody [7]: More preferably
Substance: 112 (WSKFYDDKNG; epitope) [compound 112]

- epitope sequence grade for binding to IgE antibody [7]: Preferably
Substance: 113 (WSKFYDDKN; epitope) [compound 113]

- epitope sequence grade for binding to IgE antibody [9]: Preferably
Substance: 116 (WSKFYD; epitope) [compound 116]

— patent publication US20210231678A1, “ALLERGY ANTIGEN AND EPITOPE THEREOF” (FUJITA ACADEMY, priority 2020, published 2021)
